Consider one molecule from ChEMBL document CHEMBL5029147 (J Med Chem, 2021).

The test system of data set [1] is MDA-MB-231. Put plainly: Cytotoxicity against human MDA-MB-231 cells assessed as reduction in cell viability at < 0.5 uM incubated for 24 hrs in presence of 20 uM chloramphenicol by MTT assay. The note with it: dose microM <0.5, time 24.0 hrs. It counts as functional, cell-based. Background: Tetrazolium dyes change colour on reduction, which living cells bring about.

Data set [2] is described as follows: Drug uptake in human MCF7 cells at 0.2 to 1 uM measured after 24 hrs by HPLC-MS/MS-MRM analysis. The note with it: mcf7, 24 h, dose 0.2-1 µM. The class given is ADME, cell-based.
The nature of data set [3]: Drug uptake in human MCF7 cells at 1 uM measured after 24 hrs in presence of 50 to 100 uM photoCORM delivered CO by LC-MS/MS-MRM analysis. It counts as ADME, cell-based. The note with it: mcf7, 24 h.
In data set [4] the test system is MCF7. Put plainly: Effect on CYP2C8 expression in human MCF7 cells at 0.5 to 1 uM incubated for 24 hrs by western blot analysis. It counts as functional, cell-based. The note with it: dose 0.5-1 µM. (A western blot detects proteins with antibodies after separation by electrophoresis.)
Data set [5] can be described thus: Drug metabolism in human MCF7 cells assessed as decline in intracellular hydroxy-PTX metabolite level at 1 uM measured after 24 hrs in presence of 50 to 100 uM photoCORM delivered CO by LC-MS/MS-MRM analysis. The note with it: mcf7, 24 h. It counts as ADME, cell-based.
Data set [6] in a line: Drug uptake in human HepG2 cells at 1 to 2 uM measured after 24 hrs in presence of photoCORM delivered CO by LC-MS/MS-MRM analysis. The class given is ADME, cell-based. To be noted: hepg2, 24 h, dose 1-2 µM.
Data set [7] in a line: Drug uptake in human MCF7 cells at 1 uM measured after 24 hrs in presence of 100 uM photoCORM delivered CO by LC-MS/MS-MRM analysis. The class given is ADME, cell-based. The note with it: mcf7, 24 h.
The nature of data set [8]: Drug uptake in human MCF7 cells at 1 uM measured after 24 hrs in presence of 20 uM chloramphenicol by LC-MS/MS-MRM analysis. The class given is ADME, cell-based. The note with it: mcf7, 24 h.
Data set [9] deals with MCF7. Put plainly: Effect on BCRP expression in human MCF7 cells at 0.5 to 1 uM incubated for 24 hrs by western blot analysis. The class given is functional, cell-based. The note with it: dose 0.5-1 µM.
The nature of data set [10]: Drug metabolism in human MCF7 cells assessed as intracellular hydroxy-PTX metabolite formation at 1 uM measured after 24 hrs by LC-MS/MS-MRM analysis. The class given is ADME, cell-based. To be noted: mcf7, 24 h.
The nature of data set [11]: Drug metabolism in human MDA-MB-231 cells assessed as intracellular hydroxy-PTX metabolite formation measured after 24 hrs by LC-MS/MS-MRM analysis. To be noted: mda-mb-231, 24 h. It counts as ADME, cell-based.
Data set [12] concerns MDA-MB-231. The data set is described as follows: Cytotoxicity against human MDA-MB-231 cells assessed as reduction in cell viability incubated for 24 hrs in presence of chloramphenicol by MTT assay. It counts as functional, cell-based.
The next data set has as its system HepG2. Put plainly: Cytotoxicity against human HepG2 cells assessed as reduction in cell viability incubated for 24 hrs in presence of chloramphenicol by MTT assay. The class given is functional, cell-based.
Data set [13] is described as follows: Drug metabolism in human MCF7 cells assessed as intracellular hydroxy-PTX metabolite formation at 0.2 to 1 uM measured after 24 hrs by HPLC-MS/MS-MRM analysis. It counts as ADME, cell-based. To be noted: mcf7, 24 h, dose 0.2-1 µM.

The source made the active and inactive calls. The rule behind the calls is not given here.

`CC(=O)O[C@H]1C(=O)[C@@]2(C)[C@H]([C@H](OC(=O)c3ccccc3)[C@]3(O)C[C@H](OC(=O)[C@H](O)[C@@H](NC(=O)c4ccccc4)c4ccccc4)C(C)=C1C3(C)C)[C@]1(OC(C)=O)CO[C@@H]1C[C@@H]2O` [PACLITAXEL]: the outcome in the data set on MDA-MB-231 [1], with MDA-MB-231 [12] and in the data set with HepG2 was Active. The Drug uptake entry in data set [2] is “Active”; in data set [3], “Not Active”; in data set [6], “Active”; in [7], “Not Active”; in data set [8], “Not Active”. The result with MCF7 [4] and with MCF7 [9] was inactive. Besides, the Drug metabolism result in data set [5] is “Metabolite_Notdetected”; in data set [10], 1 fmol/µg; in data set [11] it was “Metabolite_Notdetected”; in data set [13], “Metabolite_Detected”.
